Values joined by “and” are separate entries in the source; they are usually repeats but may differ in a detail not shown here. Equal entries are not always repeated. Numbers after ± are expanded uncertainties.
Details: Liquid, Transpiration method

N#CCCO [3-hydroxypropanenitrile]
Details | vapor or sublimation pressure
306.3 K | 0.01564 ± 0.00078 kPa
311.3 K | 0.02299 ± 0.0011 kPa
314.3 K | 0.02755 ± 0.0014 kPa
317.3 K | 0.03639 ± 0.0018 kPa
318.6 K | 0.03759 ± 0.0019 kPa
321.4 K | 0.04504 ± 0.0023 kPa
321.7 K | 0.04955 ± 0.0025 kPa
323.3 K | 0.05382 ± 0.0027 kPa
325.4 K | 0.06297 ± 0.0032 kPa
326.3 K | 0.06361 ± 0.0032 kPa
328.6 K | 0.07507 ± 0.0038 kPa
331.4 K | 0.08563 ± 0.0043 kPa and 0.09147 ± 0.0046 kPa
333.4 K | 0.1054 ± 0.0053 kPa
336.3 K | 0.1286 ± 0.0065 kPa
336.4 K | 0.1232 ± 0.0063 kPa
338.5 K | 0.1442 ± 0.0072 kPa
340.4 K | 0.1598 ± 0.008 kPa
341.5 K | 0.1816 ± 0.0091 kPa
343.4 K | 0.2025 ± 0.01 kPa
346.6 K | 0.2592 ± 0.013 kPa
351.7 K | 0.3404 ± 0.017 kPa
356.8 K | 0.4425 ± 0.022 kPa
361.8 K | 0.5765 ± 0.029 kPa

— the NIST ThermoML archive (doi:10.1016/j.jct.2007.03.011)
